In patent US11471459B2, “Compounds with enhanced anti-tumor effects” (FONDAZIONE PER L'ISTITUTO ONCOLOGICO DI RICERCA (IOR), priority 2018, dated 2022):

Tests used:
Assay in all cases: Proliferation MTT assay, 72 h
Type in all cases: cell-based
[1] = test system: Z138; settings: Homo sapiens, Z-138, Z138 (MCL), 72 h exposure
Description: (§1) Thirty-nine cell lines derived from activated B cell-like (ABC) (n=3) and germinal center B Cell (GCB) (n=12) diffuse large B cell lymphoma (DLBCL), mantle cell lymphoma (MCL) (n=9), chronic lymphocytic leukemia (CLL) (n=2), Hodgkin lymphoma (HL) (n=4), cutaneous T cell lymphoma (CTCL) (n=3), peripheral T cell lymphoma (PTCL) (n=1), anaplastic large T cell lymphoma (ALCL) (n=4), acute T cell leukemia (ATCL) (n=1) were cultured according to the recommended conditions. All media were supplemented with fetal bovine serum (10%), Penicillin-Streptomycin-Neomycin (˜5,000 units penicillin, 5 mg streptomycin and 10 mg neomycin/mL, Sigma) and L-glutamine (1%).
(§2) EG-011 was dissolved in dimethyl sulphoxide (DMSO) to obtain a stock concentration of 10 mM for in vitro experiments. EG-011 was dissolved in 25% hydroxypropyl beta cyclodextrin (HP-β-CD) in water and adjusted at pH 6.0 using NaOH (0.1 N) and HCl (0.1 N) for in vivo experiments. Application volume was 4.5 mL/kg (100 mg in 4.5 mL), and mice received 200 microliters (corresponding to 200 mg/kg) though intra peritoneal i.p. injection, once per day and five days per week.
(§3) Cells were seeded in 96-well plates (non-tissue culture treated) at a density of 10,000 cells for all cell lines. Each compound was dissolved in dimethyl sulphoxide (DMSO). For treatment of cells, compounds were serially diluted in the appropriate tissue culture medium, at a range of 20 mcM-78 nM following a 1:2 dilution factor and added to cells (in three replicates). Cells were incubated for 72 hours at 37° C., 5% CO2. DMSO alone was added to negative control (untreated) cells. Wells containing medium only were included on each plate and served as blanks for absorbance readings. MTT (Sigma-Aldrich Chemie GmbH, Buchs, Switzerland) was prepared as a 5 mg/ml stock in PBS and filter-sterilized. MTT solution (22 μL) was added to each well and tissue culture plates were incubated at 37° C. for 4 hours. Cells were then lysed with 25% SDS lysis buffer and absorbance was read at 570 nm using an AD340 plate reader (Beckman Coulter International SA, Switzerland). Absorbance values were expressed in percentage of proliferating cells in comparison with control cells (control corresponds to 100%).

[2] = test system: SU-DHL-6; settings: Homo sapiens, SU-DHL-6 (GCB-DLBCL), 72 h exposure
Description: as §1, §2, §3

[3] = test system: REC1; settings: Homo sapiens, REC1 (MCL), 72 h exposure
Description: as §1, §2, §3

[4] = test system: UPN1; settings: UPN1 (MCL), 72 h exposure
Description: as §1, §2, §3

[5] = test system: GRANTA519; settings: Homo sapiens, Granta-519, GRANTA519 (MCL), 72 h exposure
Description: as §1, §2, §3

[6] = test system: SU-DHL-10; settings: Homo sapiens, SU-DHL10, SU-DHL-10 (GCB-DLBCL), 72 h exposure
Description: as §1, §2, §3

[7] = test system: MEC1; settings: Homo sapiens, MEC1 (CLL), 72 h exposure
Description: as §1, §2, §3

[8] = test system: FEPD; settings: FEPD (T Cell-PTCL), 72 h exposure
Description: as §1, §2, §3

[9] = test system: PCL-12; settings: PCL-12 (CLL), 72 h exposure
Description: as §1, §2, §3

[10] = test system: H9; settings: Homo sapiens, H9 (T Cell - CTCL), 72 h exposure
Description: as §1, §2, §3

[11] = test system: MAC-1; settings: MAC-1 (T Cell - ALCL), 72 h exposure
Description: as §1, §2, §3

[12] = test system: L-428; settings: Homo sapiens, L-428 (HL), 72 h exposure
Description: as §1, §2, §3

[13] = test system: MINO; settings: Homo sapiens, MINO (MCL), 72 h exposure
Description: as §1, §2, §3

[14] = test system: OCI-LY-8; settings: OCI-Ly8, OCI-LY-8 (GCB-DLBCL), 72 h exposure
Description: as §1, §2, §3

[15] = test system: JURKAT; settings: Homo sapiens, JURKAT (T Cell Leukemia), 72 h exposure
Description: as §1, §2, §3

[16] = test system: TOLEDO; settings: Homo sapiens, TOLEDO (GCB-DLBCL), 72 h exposure
Description: as §1, §2, §3

[17] = test system: HH; settings: Homo sapiens, HH (T Cell - CTCL), 72 h exposure
Description: as §1, §2, §3

[18] = test system: SP49; settings: SP49 (MCL), 72 h exposure
Description: as §1, §2, §3

[19] = test system: KM-H2; settings: Homo sapiens, KM-H2 (HL), 72 h exposure
Description: as §1, §2, §3

[20] = test system: SU-DHL-16; settings: Homo sapiens, SU-DHL-16 (GCB-DLBCL), 72 h exposure
Description: as §1, §2, §3

[21] = test system: RCK8; settings: Homo sapiens, RCK8 (GCB-DLBCL), 72 h exposure
Description: as §1, §2, §3

[22] = test system: MAVER1; settings: Homo sapiens, MAVER1 (MCL), 72 h exposure
Description: as §1, §2, §3

[23] = test system: HUT-78; settings: Homo sapiens, HuT78, HUT-78 (T Cell - CTCL), 72 h exposure
Description: as §1, §2, §3

[24] = test system: SU-DHL-2; settings: Homo sapiens, SU-DHL-2 (ABC-DLBCL), 72 h exposure
Description: as §1, §2, §3

[25] = test system: SU-DHL-8; settings: Homo sapiens, SU-DHL-8 (GCB-DLBCL), 72 h exposure
Description: as §1, §2, §3

Structure (SMILES): C=CC(=O)N1CCCC(n2c(=O)c3ncccc3n(Cc3ccc(Oc4ccccc4)cc3)c2=O)C1 (stereo not shown) [EG-011, 1-[(4-phenoxyphenyl)methyl]-3-(1-prop-2-enoyl-3-piperidyl)pyrido[3,2-d]pyrimidine-2,4-dione]
- IC50 [1]: 20 µM
- IC50 [2]: 500 nM
- IC50 [3]: 100 nM
- IC50 [4]: 120 nM
- IC50 [5]: 250 nM
- IC50 [6]: 300 nM
- IC50 [7]: 8 µM
- IC50 [8]: 3000 nM
- IC50 [9]: 7 µM
- IC50 [10]: 1000 nM
- IC50 [11]: 150 nM
- IC50 [12]: 20 µM
- IC50 [13]: 100 nM
- IC50 [14]: 300 nM
- IC50 [15]: 15 µM
- IC50 [16]: 600 nM
- IC50 [17]: 15 µM
- IC50 [18]: 8 µM
- IC50 [19]: 2500 nM
- IC50 [20]: 1500 nM
- IC50 [21]: 10 µM
- IC50 [22]: 20 µM
- IC50 [23]: 1500 nM
- IC50 [24]: 20 µM
- IC50 [25]: 300 nM
